Laboratory results published in US7427597B2, “Method of treating brain tissue damages” (Academia Sinica, priority 2005, dated 2008).
Where no end group is shown, it is not given here.

Experiment: Physiological parameters in ischemic rats
Format: in vivo
Conditions: SN treated vs saline treated rats, n=7
Description: Seven SN treated rats and seven-saline treated rats also had their physiological parameters measured.

blood gases: No difference
blood glucose: No difference
serum electrolyte levels: No difference
Sequence: TNEIVEEQYTPQSLATLESVFQELGKLTGPNNQ [SN, secretoneurin]
systemic blood pressure: No difference
